Key:
[1] = Pharmacokinetics after oral administration to rats; format: in vivo
[2] = tested on: androstenedione-induced uterine hypertrophy; assay: Inhibition of androstenedione-induced uterine hypertrophy in rats (aromatase dependent model); format: in vivo; details: Rattus norvegicus
[3] = tested on: DMBA-induced mammary tumors; assay: Inhibition of DMBA-induced mammary tumors in rats (aromatase dependent model); format: in vivo; details: Rattus norvegicus
[4] = Single ascending dose study in pre- and post-menopausal women: pharmacokinetics; format: in vivo, human
Text: (§1) A […] (MTD) was not reached. […] Table 4 presents the PK parameters based on preliminary analysis of the concentration-time profile obtained from this study.

[5] = tested on: estrone, estrone sulfate and estradiol; assay: Single ascending dose study in women: pharmacodynamics (estrogen suppression); format: in vivo, human
Method: Patients received either 0.1 mg, 1 mg, and 10 mg drug substance containing hard gelatin capsules as described in Example 2 or appropriate matching placebo capsules.
as §1
(§2) There were no changes in bone density by DEXA after 6 months.

[6] = tested on: other enzymes involved in steroid hormone synthesis or metabolism; assay: Single ascending dose study in women: other steroid hormone enzymes and hormone levels; format: in vivo, human; details: single doses
[7] = Single ascending dose study in women: safety and tolerability; format: in vivo
Text: as §1, §2

[8] = Solid state properties of the drug substance (hygroscopicity, water solubility); format: physicochemical; details: crystalline powder

N#Cc1ccc(C(F)(c2ccc(C#N)cc2)n2cncn2)cc1 [CGP47645, 4,4′-[fluoro-(1-H-1,2,4-triazol-1-yl)methylene]bisbenzonitrile]
exposure expressed as AUC versus dose [1]: proportional to the administered dose
ED50 [2]: 3 µg/kg
ED50 [3]: 10 µg/kg
difference in pharmacokinetics between post- and pre-menopausal women ([4]; 0.1 mg cohorts): No differences
Tmax ([4]; female, human, in vivo): 0.5 to 2 h
half-life ([4]; female, human, in vivo): 552 to 648 h
median Tmax ([4]; female, human, in vivo): ≤ 1 h
AUC(0-tlast), mean ([4]; female, human, in vivo, 0.1 mg): 116.2 ng·h/mL
Cmax, mean ([4]; female, human, in vivo, 0.1 mg): 1.7 ng/mL
T1/2, mean ([4]; female, human, in vivo, 1 mg): 538 h
T1/2, mean ([4]; female, human, in vivo, 20 mg): 646 h
Tmax ([4]; female, human, in vivo, po, 0.03 mg): 0.6 h
dose proportionality of pharmacokinetics (Cmax & AUC) ([4]; human, in vivo): dose proportional pharmacokinetics
half life in humans compared with letrozole ([4]; human, in vivo): longer half life in humans than does letrozole
inter-subject variability ([4]; single doses, women): 10-30%
lowest single dose at which maximal estrogen suppression was observed ([5]; post-menopausal women, chemiluminescence or radioimmunoassay): 0.1 mg
lowest single dose at which transient estrogen suppression was seen ([5]; postmenopausal women): 0.01 mg
inhibition of other enzymes involved in steroid hormone synthesis or metabolism [6]: No inhibition
changes in bone density by DEXA ([7]; in vivo): no changes
minimal toxic dose (MTD) ([7]; single doses 0.01 mg through 20 mg, women): not reached
solubility in water [8]: poorly soluble in water

Source: US10064844B2, “Pharmaceutical compositions comprising an aromatse inhibitors” (MEREO BIOPHARMA 2 LIMITED, priority 2011, dated 2018)
